According to ChEMBL document CHEMBL1201862, “PubChem BioAssay data set” (2004):
Calls of active or inactive are those of the source.

Assays:
[1] = target: Lysosomal acid glucosylceramidase (Homo sapiens, UniProt P04062); experiment: Dose response cell-based high throughput screening assay to identify enhancers of beta-glucosidase activity. [Related pubchem assays: 784 ]; assay type: functional
cells = assay type: functional
[2] = Counterscreen for IDE inhibitors: Luminescence-based cell-based high throughput dose response assay to identify compounds that are cytotoxic to HEK cells. [Related pubchem assays: 434962 (Primary screen (IDE inhibitors in singlicate)), 449730 (Counterscreen (Cytotoxicity in triplicate)), 435028 (Confirmation (IDE inhibitors in triplicate)) …; assay type: functional; details: HEK293
Insulin-degrading enzyme = target: T1, Insulin-degrading enzyme (Homo sapiens, UniProt P14735); experiment: Dose Response: Fluorescence polarization-based cell-based high throughput dose response assay for inhibitors of insulin-degrading enzyme (IDE). [Related pubchem assays: 434962 (Primary screen (IDE inhibitors in singlicate)), 449730 (Counterscreen (Cytotoxicity in triplicate)), 435028 (Confirmation (IDE inhibitors in triplicate)), 434984 (Summary …; assay type: functional
T1 sequence (P14735 whole entry): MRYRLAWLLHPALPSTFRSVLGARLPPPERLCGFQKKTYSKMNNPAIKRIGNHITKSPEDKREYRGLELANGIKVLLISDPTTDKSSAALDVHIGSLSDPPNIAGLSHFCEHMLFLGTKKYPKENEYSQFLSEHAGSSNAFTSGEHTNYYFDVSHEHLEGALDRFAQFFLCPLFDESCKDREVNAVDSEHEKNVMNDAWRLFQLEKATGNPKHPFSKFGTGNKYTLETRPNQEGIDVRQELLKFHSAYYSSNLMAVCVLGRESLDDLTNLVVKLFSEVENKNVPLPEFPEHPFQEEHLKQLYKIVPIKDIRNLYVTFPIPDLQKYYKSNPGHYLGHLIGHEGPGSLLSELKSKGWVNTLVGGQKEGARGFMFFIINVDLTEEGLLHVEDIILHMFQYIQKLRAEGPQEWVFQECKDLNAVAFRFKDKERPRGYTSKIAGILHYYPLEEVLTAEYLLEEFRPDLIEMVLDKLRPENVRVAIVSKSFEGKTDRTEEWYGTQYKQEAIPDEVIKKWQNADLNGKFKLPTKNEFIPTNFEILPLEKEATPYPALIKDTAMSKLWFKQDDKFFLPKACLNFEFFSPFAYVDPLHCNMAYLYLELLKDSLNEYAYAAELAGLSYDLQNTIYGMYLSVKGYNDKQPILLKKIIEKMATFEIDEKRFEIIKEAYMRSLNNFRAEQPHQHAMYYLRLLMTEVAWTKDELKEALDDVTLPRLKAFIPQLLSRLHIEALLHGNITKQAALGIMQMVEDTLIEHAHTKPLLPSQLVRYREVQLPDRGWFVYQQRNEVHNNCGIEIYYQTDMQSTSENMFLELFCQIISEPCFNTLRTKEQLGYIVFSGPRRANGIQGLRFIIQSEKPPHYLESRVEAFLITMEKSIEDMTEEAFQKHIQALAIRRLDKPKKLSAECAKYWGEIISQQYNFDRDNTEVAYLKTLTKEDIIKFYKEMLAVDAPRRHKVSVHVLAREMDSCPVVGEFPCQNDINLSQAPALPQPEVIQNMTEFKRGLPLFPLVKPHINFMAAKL

[3] = target: T2, Alkaline phosphatase, tissue-nonspecific isozyme (Homo sapiens, UniProt P05186)
T2 sequence (P05186 whole entry): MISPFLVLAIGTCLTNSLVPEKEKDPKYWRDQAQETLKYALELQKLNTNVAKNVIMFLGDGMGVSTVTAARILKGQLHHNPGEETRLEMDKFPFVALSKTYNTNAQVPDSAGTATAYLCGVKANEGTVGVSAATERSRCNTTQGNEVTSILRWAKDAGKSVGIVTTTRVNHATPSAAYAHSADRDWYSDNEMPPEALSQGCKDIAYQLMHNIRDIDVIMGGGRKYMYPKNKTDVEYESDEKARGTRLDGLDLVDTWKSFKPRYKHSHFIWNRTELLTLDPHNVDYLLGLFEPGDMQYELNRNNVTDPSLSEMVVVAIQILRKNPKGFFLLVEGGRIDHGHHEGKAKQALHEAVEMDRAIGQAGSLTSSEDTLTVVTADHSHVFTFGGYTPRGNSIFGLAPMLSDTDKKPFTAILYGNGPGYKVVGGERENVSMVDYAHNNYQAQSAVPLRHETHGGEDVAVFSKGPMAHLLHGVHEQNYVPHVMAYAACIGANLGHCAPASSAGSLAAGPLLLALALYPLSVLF

[4] = target: T3, DNA repair protein RAD52 homolog (Homo sapiens, UniProt P43351); assay type: functional, biochemical
T3 sequence (P43351 whole entry): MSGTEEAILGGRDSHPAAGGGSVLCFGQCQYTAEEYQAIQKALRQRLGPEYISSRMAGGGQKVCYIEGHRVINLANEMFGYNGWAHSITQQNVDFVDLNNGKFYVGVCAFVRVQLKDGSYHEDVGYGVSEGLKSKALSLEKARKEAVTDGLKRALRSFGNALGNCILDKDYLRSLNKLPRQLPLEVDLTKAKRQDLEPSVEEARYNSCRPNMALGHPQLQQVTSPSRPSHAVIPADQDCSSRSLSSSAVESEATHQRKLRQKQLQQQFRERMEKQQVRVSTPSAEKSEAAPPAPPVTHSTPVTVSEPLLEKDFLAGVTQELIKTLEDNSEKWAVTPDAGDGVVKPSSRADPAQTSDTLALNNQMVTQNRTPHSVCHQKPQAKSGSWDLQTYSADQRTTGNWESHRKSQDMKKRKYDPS

[5] = target: Neuropeptide Y receptor type 2 (Homo sapiens, UniProt P49146); experiment: Fluorescence-based counterscreen for agonists of NPY-Y1: cell-based high-throughput dose response assay for agonists of NPY-Y2.; assay type: functional
HEK293 = experiment: Fluorescence-based counterscreen for potentiators or agonists of NPY-Y1: cell-based high-throughput dose response assay for inhibitors of cyclic nucleotide gated ion channel (CNGC) activity. In this assay, the parental HEK293 cell line transfected with a cyclic-nucleotide gated ion channel (CNGC)-based cAMP sensor is used to measure inhibition of isoproterenol-induced CNGC …; assay type: functional; details: Homo sapiens
[6] = target: Neuropeptide Y receptor type 1 (Homo sapiens, UniProt P25929); experiment: Fluorescence-based dose response cell-based high-throughput screening assay for agonists of NPY-Y1. [Related pubchem assays: 1697 (Screening assay (NPY-Y1 agonists).), 1359 (Screening assay (NPY-Y2 potentiators or agonists).), 1304 (Screening assay (NPY-Y1 potentiators or agonists).), 1704 (Screening assay (CNGC inhibitors).), 1791 (Summary AID.)]; assay type: functional
[7] = target: Luciferin 4-monooxygenase (Photinus pyralis, UniProt P08659); experiment: Counter Screen for Luciferase-based Assay Positives. [Related pubchem assays: 620, 618, 411 ]
[8] = target: T4, Heat shock factor protein 1 (Mus musculus, UniProt P38532); experiment: decrease of HSF1-responsive luciferase luminescence – cell-based, NIH3T3, dose retest, confirmation (AID 2382); assay type: functional;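 note: NIH3T3 fibroblasts with HSF1-driven luciferase reporter stressed by proteasome inhibitor MG132; luminescence from HSF1-driven luciferase expression after 8 hours of MG132 stress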
T4 sequence (P38532 whole entry): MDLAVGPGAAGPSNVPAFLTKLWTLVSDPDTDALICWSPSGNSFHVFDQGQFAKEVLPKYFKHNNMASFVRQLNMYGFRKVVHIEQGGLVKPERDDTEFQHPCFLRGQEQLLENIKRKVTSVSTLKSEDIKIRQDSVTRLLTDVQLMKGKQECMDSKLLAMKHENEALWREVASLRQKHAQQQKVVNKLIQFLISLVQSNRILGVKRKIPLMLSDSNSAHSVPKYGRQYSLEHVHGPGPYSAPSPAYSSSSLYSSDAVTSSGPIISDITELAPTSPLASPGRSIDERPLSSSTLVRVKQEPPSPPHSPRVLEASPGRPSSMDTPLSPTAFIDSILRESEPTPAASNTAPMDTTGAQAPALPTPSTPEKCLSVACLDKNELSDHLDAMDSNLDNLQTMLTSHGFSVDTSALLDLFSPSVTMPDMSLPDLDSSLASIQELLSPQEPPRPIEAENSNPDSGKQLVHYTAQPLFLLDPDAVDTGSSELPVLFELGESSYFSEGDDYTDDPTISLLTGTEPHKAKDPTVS

[9] = Luminescence-based counterscreen assay for KLF5 inhibitors: dose response cell-based high throughput screening assay to identify cytotoxic compounds using the IEC-6 intestinal epithelial cell line. [Related pubchem assays: 1700 (Primary screen.), 1834 (Confirmation screen.), 1858 (Summary AID.), 1905 (Counterscreen.)]; assay type: functional
HT-1080 = experiment: HT1080 cell viability loss – fluorescence readout (AID 620); assay type: functional, cell-based; details: Homo sapiens
[10] = HEK-293T viability loss after treatment – luminescence, T-cell screen hits, cytotoxicity control for TCR NF-kB inhibitor project, dose response (AID 489026); assay type: functional, cell-based;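 note: cells exposed to compound about 14 hours before the viability readout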
[11] = target: T5, Microphthalmia-associated transcription factor (Homo sapiens, UniProt O75030); experiment: reducers of TRPM1 reporter luminescence, concentration series – cell-based, SK-MEL-5, cherry-picked, set 3, MITF inhibitor project, dose response (AID 493073); assay type: functional;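 note: SK-MEL-5 melanoma cells with luciferase driven by the MITF target TRPM1 promoter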
T5 sequence (O75030 whole entry): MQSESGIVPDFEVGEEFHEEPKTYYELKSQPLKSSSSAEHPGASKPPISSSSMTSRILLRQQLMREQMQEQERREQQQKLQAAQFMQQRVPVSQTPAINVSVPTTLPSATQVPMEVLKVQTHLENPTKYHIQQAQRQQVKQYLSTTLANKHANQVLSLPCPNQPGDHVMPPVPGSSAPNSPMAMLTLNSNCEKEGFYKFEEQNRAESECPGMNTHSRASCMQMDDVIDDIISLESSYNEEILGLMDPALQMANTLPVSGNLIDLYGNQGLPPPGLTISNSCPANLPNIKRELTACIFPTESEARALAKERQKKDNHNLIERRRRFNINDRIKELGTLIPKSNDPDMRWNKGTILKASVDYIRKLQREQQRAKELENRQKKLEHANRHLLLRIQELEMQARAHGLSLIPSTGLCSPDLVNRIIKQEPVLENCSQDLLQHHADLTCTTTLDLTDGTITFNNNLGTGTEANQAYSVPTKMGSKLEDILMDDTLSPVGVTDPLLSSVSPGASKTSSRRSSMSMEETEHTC

[12] = reduction of Shn3 3'UTR-driven luciferase in osteoblasts – cell-based, Clone20 osteoblasts, firefly luciferase, cherry-picked, dose response (AID 624132); assay type: functional;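 note: firefly luciferase luminescence from reporter carrying the Shn3 3'UTR in osteoblasts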
[13] = blockers of HIV-1 envelope-mediated cell-cell fusion – cherry-pick, dose response (AID 652057); assay type: functional, cell-based
[14] = blockers of HIV-1 ZM109 envelope-driven cell-cell fusion – HeLa effector, CEM target cells, luciferase, cherry-pick, dose response (AID 652058); assay type: functional, cell-based;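 note: luciferase signal from HIV-1 Env mediated cell-cell fusion of effector and target cells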
Paired box protein Pax-8 = Paired box protein Pax-8 (Homo sapiens, UniProt Q06710); experiment: PAX8 transcriptional activity inhibition in RMG-I – RMG-I cells, luciferase, cherry-pick, dose response (AID 687027); assay type: functional, cell-based;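 note: luciferase reporter driven by Pax8 target thyroperoxidase promoter measured by SteadyGlo luminescence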
[15] = off-target signal loss in HeLa-CEM21 co-culture – HeLa F-luc CTL cells, cherry-picked, counter-screen for HIV-1 Env fusion inhibitor project, dose response (AID 652040); assay type: functional, cell-based;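 note: potency for signal decrease marking cytotoxic or nonspecific inhibition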
[16] = HIV-1 AD8 envelope cell-cell fusion blockers – cherry-pick, dose response (AID 652062); assay type: functional, cell-based;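 note: luciferase signal from cell-cell fusion driven by HIV-1 clade B AD8 Env; potency is for inhibitors of fusion seen as a drop in luminescence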
[17] = Shn3 3'UTR reporter signal decrease – cell-based, Clone20 osteoblasts, firefly luciferase, cherry-pick, set 2, Schnurri-3 inhibitor project, dose response (AID 720490); assay type: functional;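 note: actives lower the luminescence signal as inhibitors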
[18] = general cell-killing toxicity readout – plate reader, dry powder samples, cytotoxicity control for PAX8 inhibitor project, dose response (AID 743021); assay type: functional, cell-based
Cytochrome P450 2D6 = Cytochrome P450 2D6 (Homo sapiens, UniProt P10635); experiment: qHTS Assay for Inhibitors and Substrates of Cytochrome P450 2D6. [Related pubchem assays: 410 ]; assay type: ADME; details: read-out: Potency
Sequence of Cytochrome P450 2D6 (P10635 whole entry): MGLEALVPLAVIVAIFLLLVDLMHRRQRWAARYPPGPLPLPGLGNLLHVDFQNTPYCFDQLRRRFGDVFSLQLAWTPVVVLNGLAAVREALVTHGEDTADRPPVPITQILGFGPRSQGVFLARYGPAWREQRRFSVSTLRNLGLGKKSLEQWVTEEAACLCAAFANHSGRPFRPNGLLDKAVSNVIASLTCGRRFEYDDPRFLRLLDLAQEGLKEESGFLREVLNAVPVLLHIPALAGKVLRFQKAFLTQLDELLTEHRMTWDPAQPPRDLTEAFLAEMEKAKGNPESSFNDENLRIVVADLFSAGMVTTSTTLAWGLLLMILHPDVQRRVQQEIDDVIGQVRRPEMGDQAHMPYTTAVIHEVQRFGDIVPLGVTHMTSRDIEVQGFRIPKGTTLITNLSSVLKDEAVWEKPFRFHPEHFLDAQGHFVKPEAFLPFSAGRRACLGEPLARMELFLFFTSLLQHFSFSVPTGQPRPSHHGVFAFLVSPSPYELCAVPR

Sequence of Neuropeptide Y receptor type 1 (P25929 whole entry): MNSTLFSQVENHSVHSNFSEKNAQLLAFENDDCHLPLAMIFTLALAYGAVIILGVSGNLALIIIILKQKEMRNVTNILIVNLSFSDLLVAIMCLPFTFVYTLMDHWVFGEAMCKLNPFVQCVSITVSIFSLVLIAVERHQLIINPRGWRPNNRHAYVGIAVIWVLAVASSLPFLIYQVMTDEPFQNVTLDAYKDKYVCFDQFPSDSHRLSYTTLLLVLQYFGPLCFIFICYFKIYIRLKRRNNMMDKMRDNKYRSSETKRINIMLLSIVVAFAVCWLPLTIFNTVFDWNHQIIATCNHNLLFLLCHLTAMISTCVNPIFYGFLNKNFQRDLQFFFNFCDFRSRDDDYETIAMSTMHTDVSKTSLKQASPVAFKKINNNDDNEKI
Sequence of Paired box protein Pax-8 (Q06710 whole entry, the tested form may be a part): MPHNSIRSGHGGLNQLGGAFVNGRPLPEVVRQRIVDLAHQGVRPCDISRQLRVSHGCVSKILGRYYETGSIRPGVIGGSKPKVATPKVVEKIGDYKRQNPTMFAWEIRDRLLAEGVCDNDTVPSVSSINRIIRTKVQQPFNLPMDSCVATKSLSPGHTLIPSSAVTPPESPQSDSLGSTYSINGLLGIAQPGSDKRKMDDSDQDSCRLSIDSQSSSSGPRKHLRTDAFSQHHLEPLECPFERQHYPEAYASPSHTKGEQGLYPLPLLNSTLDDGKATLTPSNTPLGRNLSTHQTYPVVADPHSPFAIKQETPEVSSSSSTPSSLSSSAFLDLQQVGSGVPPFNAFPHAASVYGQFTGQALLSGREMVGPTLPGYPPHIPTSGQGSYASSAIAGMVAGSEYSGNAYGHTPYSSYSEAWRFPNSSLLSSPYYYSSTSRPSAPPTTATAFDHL
Sequence of Neuropeptide Y receptor type 2 (P49146 whole entry): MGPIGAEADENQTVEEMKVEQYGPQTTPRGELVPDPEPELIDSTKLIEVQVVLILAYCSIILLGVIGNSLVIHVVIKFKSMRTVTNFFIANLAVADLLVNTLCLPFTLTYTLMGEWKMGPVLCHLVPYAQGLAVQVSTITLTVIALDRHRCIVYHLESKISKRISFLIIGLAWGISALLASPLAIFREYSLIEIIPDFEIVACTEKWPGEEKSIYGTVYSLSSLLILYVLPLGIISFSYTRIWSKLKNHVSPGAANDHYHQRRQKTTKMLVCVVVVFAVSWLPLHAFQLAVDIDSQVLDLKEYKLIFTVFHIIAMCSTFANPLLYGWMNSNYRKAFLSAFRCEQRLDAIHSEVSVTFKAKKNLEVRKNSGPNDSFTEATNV
Sequence of Luciferin 4-monooxygenase (P08659 whole entry): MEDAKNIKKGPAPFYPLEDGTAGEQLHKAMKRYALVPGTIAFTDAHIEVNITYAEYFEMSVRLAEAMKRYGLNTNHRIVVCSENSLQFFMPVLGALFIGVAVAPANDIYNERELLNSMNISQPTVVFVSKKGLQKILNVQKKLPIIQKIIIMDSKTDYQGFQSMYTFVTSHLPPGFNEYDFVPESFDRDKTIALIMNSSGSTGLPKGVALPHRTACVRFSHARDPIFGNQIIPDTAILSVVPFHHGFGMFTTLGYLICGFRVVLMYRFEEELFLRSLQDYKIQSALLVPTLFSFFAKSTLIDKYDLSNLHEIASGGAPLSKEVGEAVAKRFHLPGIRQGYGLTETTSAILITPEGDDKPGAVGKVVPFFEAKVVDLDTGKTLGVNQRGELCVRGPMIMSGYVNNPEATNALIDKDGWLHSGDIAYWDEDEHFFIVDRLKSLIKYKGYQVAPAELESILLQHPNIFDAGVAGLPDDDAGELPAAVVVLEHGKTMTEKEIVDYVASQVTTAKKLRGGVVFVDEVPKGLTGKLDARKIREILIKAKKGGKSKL
Sequence of Lysosomal acid glucosylceramidase (P04062 whole entry): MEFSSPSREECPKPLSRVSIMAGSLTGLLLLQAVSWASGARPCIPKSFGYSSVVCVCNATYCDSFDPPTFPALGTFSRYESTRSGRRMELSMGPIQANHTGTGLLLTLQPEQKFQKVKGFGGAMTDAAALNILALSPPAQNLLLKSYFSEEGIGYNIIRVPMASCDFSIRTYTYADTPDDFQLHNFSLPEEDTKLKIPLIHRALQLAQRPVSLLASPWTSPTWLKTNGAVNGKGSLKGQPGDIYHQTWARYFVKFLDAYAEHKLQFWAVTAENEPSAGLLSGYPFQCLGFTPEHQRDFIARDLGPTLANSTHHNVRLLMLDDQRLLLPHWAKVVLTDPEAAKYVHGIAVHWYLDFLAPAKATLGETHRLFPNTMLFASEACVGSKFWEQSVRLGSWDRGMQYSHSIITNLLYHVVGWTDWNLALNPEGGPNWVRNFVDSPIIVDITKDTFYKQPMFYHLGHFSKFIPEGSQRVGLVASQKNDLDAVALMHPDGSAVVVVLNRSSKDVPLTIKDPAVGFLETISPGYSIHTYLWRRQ

CCCCSc1nnc(-c2ccc(C)cc2)o1
EC50 [1]: > 50 µM (not active) | IC50 (cells): 39 µM (active)

CCCCCN(C(=O)CCC(=O)OCC(=O)c1ccc(CCC)cc1)c1c(N)n(CCCC)c(=O)[nH]c1=O
IC50 [2]: 39.1 µM (not active) | IC50 (Insulin-degrading enzyme): 10.6 µM (not active)

CN(C)CCCN(C(=O)c1ccco1)c1nc2ccc(Br)cc2s1
EC50 [3]: > 100 µM (not active) | AC50 [4]: 14.1 µM (active)

COc1ccc(Nc2oc(/C=C3/SC(=S)N(CC4CCCO4)C3=O)nc2C#N)cc1 (centres undefined)
EC50 [5]: 12.8 µM (not active) | IC50 (HEK293): 11.8 µM (not active) | EC50 [6]: 13.5 µM (not active)

Cc1ccc(C(=O)Nc2cnc3ccccc3c2)cc1
EC50 [7]: > 100 µM (not active) | EC50 [8]: 4.76 µM (active) | IC50 [9]: > 39.8 µM (not active) | EC50 (HT-1080): > 50 µM (not active) | IC50 [10]: > 80 µM (inactive) | AC50 [11]: 1.15 µM (active) | AC50 [12]: 4.04 µM (active) | AC50 [13]: 2.29 µM (active) | AC50 [14]: 13.9 µM (active) | AC50 (Paired box protein Pax-8): 3.57 µM (active) | AC50 [15]: 9.31 µM (active) | AC50 [16]: 4.14 µM (active) | AC50 [17]: 2.3 µM (active) | AC50 [18]: 46 µM (active)

C=CCc1cccc(C2C(C)CCC3C(=O)N4C(Cc5c([nH]c6ccccc56)C4c4cc(OC)c(OC)c(OC)c4)C(=O)N32)c1 (centres undefined)
AC50 (Cytochrome P450 2D6): 3.98 µM (inconclusive)
